Source: patent US9833497B2, “Human originated EGF domain proteins and use of the same” (CHENGDU SOURCEBIO LIMITED-LIABILITY COMPANY, priority 2013, dated 2017)

How the values were obtained:
Assay type in all cases: cell-based
E. coli BL21 = assay: MIC against Gram-negative bacteria: E. coli BL21; details: 5×10^5 CFU/mL
Outline: (§1)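 Purified recombinant human EGF domain proteins are tested by broth dilution in LB against a 5×10^5 CFU/mL inoculum, with two-fold serial dilutions run in triplicate. Plates are incubated at 37° C with shaking, and the MIC is read as the lowest protein concentration without growth.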

Serratia marcescens = assay: MIC against Gram-negative bacteria: Serratia marcescens; details: 5×10^5 CFU/mL; for MIC against S. marcescens: Serratia marcescens
Outline: as §1

Aeromonas hydrophila = assay: MIC against Gram-negative bacteria: Aeromonas hydrophila; details: 5×10^5 CFU/mL; for MIC against A. hydrophila: Aeromonas hydrophila
Outline: as §1

Proteus vulgaris = assay: MIC against Gram-negative bacteria: Proteus vulgaris; details: 5×10^5 CFU/mL; for MIC against P. vulgaris: Proteus vulgaris
Outline: as §1

E. coli DH5α = assay: Antibacterial activity: MIC and growth curve against E. coli DH5α in 96-well plate; details: minimal inhibitory concentration against E. coli DH5α; 96-well plate, 5×10^5 CFU/mL, 37° C., judged after 8 h
Outline: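 Log-phase DH5α (OD600 about 0.5, 37° C, 185 rpm in LB) was pelleted, resuspended in fresh LB and seeded at 5×10^5 CFU/mL with recombinant protein at 50, 25 and 12.5 μg/mL (two-fold series), in triplicate. Plates were shaken at 175 rpm, 37° C, and OD600 was read every 30 min. MIC was the lowest concentration with no growth.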

Pseudomonas aeruginosa = assay: MIC against Gram-negative bacteria: Pseudomonas aeruginosa; details: 5×10^5 CFU/mL; for MIC against P. aeruginosa: Pseudomonas aeruginosa
Outline: as §1

Moraxella catarrhalis = assay: MIC against Gram-negative bacteria: Moraxella catarrhalis; details: 5×10^5 CFU/mL; for MIC against M. catarrhalis: Moraxella catarrhalis
Outline: as §1

Enterobacter cloacae = assay: MIC against Gram-negative bacteria: Enterobacter cloacae; details: 5×10^5 CFU/mL; for MIC against E. cloacae: Enterobacter cloacae
Outline: as §1

Citrobacter diversus = assay: MIC against Gram-negative bacteria: Citrobacter diversus; details: 5×10^5 CFU/mL; for MIC against C. diversus: Citrobacter diversus
Outline: as §1

Klebsiella pneumonia = assay: MIC against Gram-negative bacteria: Klebsiella pneumonia; details: 5×10^5 CFU/mL; for MIC against K. pneumonia: Klebsiella pneumonia
Outline: as §1

Proteus mirabilis = assay: MIC against Gram-negative bacteria: Proteus mirabilis; details: 5×10^5 CFU/mL; for MIC against P. mirabilis: Proteus mirabilis
Outline: as §1

[1] = E. coli BL21, 10 h cultivation at 37° C.
[2] = S. marcescens, 10 h cultivation at 37° C.
[3] = A. hydrophila, 10 h cultivation at 37° C.
[4] = P. vulgaris, 10 h cultivation at 37° C.
[5] = P. aeruginosa, 10 h cultivation at 37° C.
[6] = M. catarrhalis, 10 h cultivation at 37° C.
[7] = E. cloacae, 10 h cultivation at 37° C.
[8] = C. diversus, 10 h cultivation at 37° C.
[9] = K. pneumonia, 10 h cultivation at 37° C.
[10] = P. mirabilis, 10 h cultivation at 37° C.

Row | Substance | MIC (E. coli DH5α) [µg/mL] | MIC E. coli BL21 (E. coli BL21; 96-well plate, 37° C., 10 h) [µg/mL] | MIC S. marcescens (Serratia marcescens; 96-well plate, 37° C., 10 h) [µg/mL] | MIC A. hydrophila (Aeromonas hydrophila; 96-well plate, 37° C., 10 h) [µg/mL] | MIC P. vulgaris (Proteus vulgaris; 96-well plate, 37° C., 10 h) [µg/mL] | MIC P. aeruginosa (Pseudomonas aeruginosa; 96-well plate, 37° C., 10 h) [µg/mL] | MIC M. catarrhalis (Moraxella catarrhalis; 96-well plate, 37° C., 10 h) [µg/mL] | MIC E. cloacae (Enterobacter cloacae; 96-well plate, 37° C., 10 h) [µg/mL] | MIC C. diversus (Citrobacter diversus; 96-well plate, 37° C., 10 h) [µg/mL] | MIC K. pneumonia (Klebsiella pneumonia; 96-well plate, 37° C., 10 h) [µg/mL] | MIC (μg/mL) E. coli BL21 (E. coli BL21; [1]) [µg/mL] | MIC (μg/mL) S. marcescens (Serratia marcescens; [2]) [µg/mL] | MIC (μg/mL) A. hydrophila (Aeromonas hydrophila; [3]) [µg/mL] | MIC (μg/mL) P. vulgaris (Proteus vulgaris; [4]) [µg/mL] | MIC (μg/mL) P. aeruginosa (Pseudomonas aeruginosa; [5]) [µg/mL] | MIC (μg/mL) M. catarrhalis (Moraxella catarrhalis; [6]) [µg/mL] | MIC (μg/mL) E. cloacae (Enterobacter cloacae; [7]) [µg/mL] | MIC (μg/mL) C. diversus (Citrobacter diversus; [8]) [µg/mL] | MIC (μg/mL) K. pneumonia (Klebsiella pneumonia; [9]) [µg/mL] | MIC (μg/mL) P. mirabilis (Proteus mirabilis; [10]) [µg/mL] | also measured
1 | PRT1434 (DVDECKYHPCYPGVHCINLSPGFRCDACPVGFTGPMVQ; listed as Homo sapiens) | 25 |  |  |  |  |  |  |  |  |  |  |  |  |  |  |  |  |  |  |  | MIC against E. coli BL21 (E. coli BL21; [1]): 12.5 µg/mL; MIC against S. marcescens (Serratia marcescens; 10 h cultivation at 37° C.): 12.5 µg/mL; MIC against A. hydrophila (Aeromonas hydrophila; 10 h cultivation at 37° C.): 12.5 µg/mL; MIC against P. vulgaris (Proteus vulgaris; 10 h cultivation at 37° C.): 12.5 µg/mL; MIC against P. aeruginosa (Pseudomonas aeruginosa; 10 h cultivation at 37° C.): 25 µg/mL; MIC against M. catarrhalis (Moraxella catarrhalis; 10 h cultivation at 37° C.): 12.5 µg/mL; MIC against E. cloacae (Enterobacter cloacae; 10 h cultivation at 37° C.): 25 µg/mL; MIC against C. diversus (Citrobacter diversus; 10 h cultivation at 37° C.): 25 µg/mL; MIC against K. pneumonia (Klebsiella pneumonia; 10 h cultivation at 37° C.): 100 µg/mL; MIC against P. mirabilis (Proteus mirabilis; 10 h cultivation at 37° C.): 25 µg/mL
2 | PRT732 (SVNPCAFSRCSHLCLLSSQGPHFYSCVCPSGWSLSPDLLNCL; listed as Homo sapiens) | 12.5 | 50 | 12.5 | 12.5 | 25 | 12.5 | 50 | 25 | 25 | 50 |  |  |  |  |  |  |  |  |  |  | MIC P. mirabilis (Proteus mirabilis; 96-well plate, 37° C., 10 h): 25 µg/mL
3 | PRT803 (HGKGCQLPCQCRHGASCDPRAGECLCAPGYTGVYCE; listed as Homo sapiens) | 50 |  |  |  |  |  |  |  |  |  | 50 | 50 | 25 | 12.5 | 12.5 | 100 | 50 | 25 | 25 | 50 | 
4 | PRT435 (DMDECSFSEFLCQHECVNQPGTYFCSCPPGYILLDDNRSCQ; listed as Homo sapiens) | 12.5 |  |  |  |  |  |  |  |  |  |  |  |  |  |  |  |  |  |  |  | MIC (E. coli BL21; [1]): 25 µg/mL; MIC (Serratia marcescens; [2]): 50 µg/mL; MIC (Aeromonas hydrophila; [3]): 25 µg/mL; MIC (Proteus vulgaris; [4]): 25 µg/mL; MIC (Pseudomonas aeruginosa; [5]): 12.5 µg/mL; MIC (Moraxella catarrhalis; [6]): 25 µg/mL; MIC (Enterobacter cloacae; [7]): 12.5 µg/mL; MIC (Citrobacter diversus; [8]): 12.5 µg/mL; MIC (Klebsiella pneumonia; [9]): 25 µg/mL; MIC (Proteus mirabilis; [10]): 12.5 µg/mL
5 | PRT1240 (WGPDCRESCPCHPHGQCEPATGACQCQADRWGARCE; listed as Homo sapiens) | 12.5 |  |  |  |  |  |  |  |  |  |  |  |  |  |  |  |  |  |  |  | MIC against E. coli BL21 (E. coli BL21; E. coli BL21, 96-well plate, 37° C., 10 h): 50 µg/mL; MIC against S. marcescens (Serratia marcescens; 96-well plate, 37° C., 10 h): 25 µg/mL; MIC against A. hydrophila (Aeromonas hydrophila; 96-well plate, 37° C., 10 h): 12.5 µg/mL; MIC against P. vulgaris (Proteus vulgaris; 96-well plate, 37° C., 10 h): 12.5 µg/mL; MIC against P. aeruginosa (Pseudomonas aeruginosa; 96-well plate, 37° C., 10 h): 12.5 µg/mL; MIC against M. catarrhalis (Moraxella catarrhalis; 96-well plate, 37° C., 10 h): 50 µg/mL; MIC against E. cloacae (Enterobacter cloacae; 96-well plate, 37° C., 10 h): 25 µg/mL; MIC against C. diversus (Citrobacter diversus; 96-well plate, 37° C., 10 h): 25 µg/mL; MIC against K. pneumonia (Klebsiella pneumonia; 96-well plate, 37° C., 10 h): 12.5 µg/mL; MIC against P. mirabilis (Proteus mirabilis; 96-well plate, 37° C., 10 h): 25 µg/mL
6 | PRT234 (DINECATLSKVSCGKFSDCWNTEGSYDCVCSPGYEPVSGAKTFKNESENTCQ; listed as Homo sapiens) | 25 |  |  |  |  |  |  |  |  |  | 50 | 25 | 12.5 | 12.5 | 25 | 12.5 | 25 | 25 | 12.5 | 25 | 
7 | PRT198 (CQPKTCNMRGICNNKQHCHCNHEWAPPYC; listed as Homo sapiens) | 12.5 |  |  |  |  |  |  |  |  |  | 12.5 | 50 | 25 | 25 | 12.5 | 25 | 12.5 | 50 | 50 | 12.5 | 
8 | PRT226 (DIDECESGAHQCSEAQTCVNFHGGYRCVDTNRCVEPYIQVSENRCL; listed as Homo sapiens) | 50 |  |  |  |  |  |  |  |  |  | 25 | 12.5 | 12.5 | 12.5 | 12.5 | 12.5 | 50 | 50 | 25 | 12.5 | 
9 | PRT665 (GIDRCAAGATNVCGPGTCVNLPDGYRCVCSPGYQLHPSQAYCT; listed as Homo sapiens) | 25 | 50 | 25 | 50 | 50 | 25 | 12.5 | 25 | 25 | 12.5 |  |  |  |  |  |  |  |  |  |  | MIC P. mirabilis (Proteus mirabilis; 96-well plate, 37° C., 10 h): 25 µg/mL
10 | PRT728 (ATNPCKDNNGGCEQVCVLSHRTDNDGLGFRCKCTFGFQLDTDERHCI; listed as Homo sapiens) | 25 | 25 | 25 | 12.5 | 12.5 | 25 | 12.5 | 25 | 25 | 12.5 |  |  |  |  |  |  |  |  |  |  | MIC P. mirabilis (Proteus mirabilis; 96-well plate, 37° C., 10 h): 12.5 µg/mL
